In patent US20040023295A1, “Methods and systems for analyzing complex biological systems” (priority 2001, published 2004):

Tested on: Saccharomyces cerevisiae wild type strain BY4743
Assay: AF1 combined gene expression and metabolite data mapped to KEGG reactions and pathways
Type: cell-based
Source text: In AF1, two different technologies were utilized: gene expression analysis (for examination of mRNA expression) and metabolite analysis. […] As noted previously, existing metabolic databases may be helpful in practicing the methods and systems of the present invention, but many databases include limitations that make their use in data analysis and pathway mapping less than straightforward. […] This caveat to KEGG makes it difficult to pinpoint the correct pathway when attempting to link a gene to a specific pathway. The pathway score indicates how meaningful the mapping is, or how likely it is to be correctly indicative of the pathway involved in the perturbation under examination. […] Degree of perturbation can be calculated, for example, based on a number of standard deviations from a norm, and included in an equation such as the one shown above, so that not only the number of pathways is taken into account, but also accounts for the amount of gene transcript or compound present as compared to a control. […] KEGG links 676 compounds measured in AF1 to a total of 92 pathways. Of the 676 compounds under consideration, 77 were detected in the AF1 samples. […]

## C[C@@H]1[C@H](O)[C@@H](C)/C=C/C=C/C=C/C=C/C=C/C=C/C=C/[C@H](O[C@@H]2O[C@H](C)[C@@H](O)[C@H](N)[C@@H]2O)C[C@@H]2O[C@](O)(C[C@@H](O)C[C@@H](O)[C@H](O)CC[C@@H](O)C[C@@H](O)CC(=O)O[C@H]1C)C[C@H](O)[C@H]2C(=O)O [Amphoteracin B]
  # Reactions (title: Number Of Pathways Having at Least One Enzyme and One Compound Perturbed): 37
  # Reactions Having an Enzyme and at Least One Compound Perturbed: 54
